Measurements as given in PMC6268492, “Synthesis and Antiangiogenic Activity of Novel Gambogic Acid Derivatives” (Molecules, 2012).
Where two headings read alike, the source gives them in different places.

Columns and labels:
zebrafish embryos [1] = experiment: Zebrafish toxicity: mortality rate; type: in vivo, zebrafish (Danio rerio)
Experimental: (§1) To investigate the toxicity of these four compounds, the heart rates and the mortality rates of zebrafish embryos were recorded (Table 2 and Table 3). The heart rate of zebrafish in the control group was 117 beats/min.
(§2) Using transgenic fli-1: enhanced GFP zebrafish embryos, we investigated the effects of all compounds on angiogenesis. Zebrafish embryos were generated by natural pairwise mating and raised at 28.5 °C in embryo water (0.2 g/L of Instant Ocean Salt in distilled water). At about 6 h post fertilization (hpf), the embryos were sorted in the 6-well plate (six embryos/well), removing dead and unhealthy embryos. Then the embryos were treated with the indicated concentrations of compounds which were added into embryo water. After incubation for 24 or 48 h, the embryos were anesthetized using 0.05% 2-phenoxyethanol in embryo water, quantified and photographed.

HUVEC = experiment: MTT assay, cell proliferation; type: cell-based, Human; conditions: Homo sapiens, 24 h, read-out: IC50, inhibition of cell proliferation
Experimental: Inhibiting the proliferation of ECs is another important strategy for antiangiogenesis. […] As the exposure time of these derivatives was 24 h in the migration assay and 6 h in the tube formation assay, the effect of the incubation for 24 h in the presence of these compounds on HUVECs proliferation was then tested. Cell viability was assessed by the MTT method. We can see from Table 4 that these compounds had different antiproliferative activities.
(§3) HepG2, HCT116, HeLa and LO2 cell lines were cultured in DMEM containing 10% fetal bovine serum (FBS), 100 IU/mL penicillin and 100 µg/mL streptomycin; A549 and K562 cell lines were cultured in RPMI 1640 medium containing 10% fetal bovine serum (FBS), 100 IU/mL penicillin and 100 µg/mL streptomycin; Human umbilical vein endothelial cells (HUVECs) were cultured on gelatin-coated culture flasks in M-199 medium with 20% fetal bovine serum (FBS), 2 ng/mL VEGF, 10 ng/mL basic FGF, 100 IU/mL penicillin, and 100 μg/mL streptomycin; all of them were obtained from the American Type Culture Collection (ATCC) and all cell lines were incubated in an atmosphere of 5% CO2 at 37 °C.
(§4) Cells were treated with various concentrations of compound in 96-well culture plates for 24 h in final volumes of 200 μL (5 × 10^3 cells/well). Then 20 μL of MTT solution (5 mg/mL) was added to each well, and cells were incubated for an additional 3 h. Then the medium was carefully removed, and precipitates were dissolved in 150 μL of DMSO, shaken mechanically for 30 min, and then absorbance values at a wavelength of 570 nm were taken on a spectrophotometer (Molecular Devices, Sunnyvale, CA, USA). Values were calculated using percentage of growth versus untreated control. The IC50 was defined as the concentration that caused 50% inhibition of cell proliferation, and was calculated by SAS statistical software.

HeLa = experiment: MTT assay, cell proliferation; type: cell-based; conditions: Homo sapiens, 24 h, read-out: IC50, inhibition of cell proliferation
Experimental: as §3, §4

HepG2 = experiment: MTT assay, cell proliferation; type: cell-based; conditions: Homo sapiens, 24 h, read-out: IC50, inhibition of cell proliferation
Experimental: as §3, §4

K562 = experiment: MTT assay, cell proliferation; type: cell-based; conditions: Homo sapiens, 24 h, read-out: IC50, inhibition of cell proliferation
Experimental: as §3, §4

A549 = experiment: MTT assay, cell proliferation; type: cell-based; conditions: Homo sapiens, 24 h, read-out: IC50, inhibition of cell proliferation
Experimental: as §3, §4

HCT116 = experiment: MTT assay, cell proliferation; type: cell-based; conditions: Homo sapiens, HCT-116, 24 h, read-out: IC50, inhibition of cell proliferation
Experimental: as §3, §4

zebrafish embryos [2] = experiment: Zebrafish toxicity: heart rates; type: in vivo; conditions: transgenic fli-1:enhanced GFP (fli-1:EGFP) line, zebrafish, in vivo
Experimental: as §1, §2

HUVECs = experiment: Matrigel tube formation assay; type: cell-based, Human; conditions: Homo sapiens, HUVEC, 0.5 μM, 6 h, vs control, read-out: inhibitory rates of tube formation
Experimental: In the later stages of angiogenesis, tube formation of ECs is also an important process. Thus, a Matrigel tube formation assay was applied to assess the ability of HUVECs to form ECs vascular structures which is believed to be significant in new vessel formation.
Figure 4 Effects on the HUVECs tube formation. (I) HUVECs (1 × 10^4 cells) suspended in DMEM containing each compound (0.5 or 1 or 2 μM) were added to the Matrigel. Control was treated with DMEM alone. After incubation for 6 h at 37 °C, capillary networks were photographed and quantified (Olympus CKX41, magnification: 100×); (II) Rates of the HUVECs tube formation. The number of intact tubes was counted in five randomly chosen regions and expressed as the percentage of the control. The results were expressed as mean ±SD. ** p < 0.01; *** p < 0.005 compared with control.
Matrigel was dissolved at 4 °C overnight. Each well of prechilled 96-well plates was coated with 50 μL of Matrigel, incubated and solidified at 37 °C for 45 min. After removing the unsolidified fluid, HUVECs at the density of 1 × 10^4 were cultured in DMEM containing the indicated concentrations of compounds for 6 h. Controls were treated with the DMEM alone. Images were digitally captured and quantitatively analyzed (Olympus). The numbers and line lengths of the circular tubules formed by the cells were calculated manually. The values were observed from five randomly selected fields.

LO2 = experiment: MTT assay, cytotoxicity; type: cell-based; conditions: Homo sapiens, L02, 24 h, read-out: IC50, inhibition of cell proliferation
Experimental: as §3, §4

[3] = test system: transgenic fli-1: enhanced GFP zebrafish embryos; experiment: Zebrafish embryo assay: antiangiogenic effects; type: in vivo, zebrafish (Danio rerio); conditions: for inhibition in vivo at 1 µM / inhibition in vivo at 2.5 µM / inhibition in vivo at 10 µM: Danio rerio; for inhibition in vivo at 1 µM / inhibition in vivo at 2.5 µM / inhibition in vivo at 10 µM / antiangiogenic rates: zebrafish embryos; for inhibition in vivo at 1 µM / antiangiogenic rates: 1 μM
Experimental: As stated previously, zebrafish is regarded as a powerful tool in the study of human diseases. […] In this study, all GA derivatives were incubated with the transgenic friend leukemia integration-1 (fli-1): enhanced GFP zebrafish embryos which carried a fli-1 promoter which can drive the expression of GFP in the whole endothelium.
Figure 1 Effects on neovascularization in zebrafish embryos. The transgenic fli-1: enhanced GFP zebrafish embryos in embryo water (0.2 g/L of instant ocean salt in distilled water) incubated with 1 μM of compounds at 6 h postfertilization (hpf) for 24 h. Zebrafish embryos were imaged (Imager.Z1, magnification: left, 40×; right, 100×).
as §2, with “Zebrafish embryos were generated by natural pairwise mating and raised at 28.5 °C in embryo water (0.2 g/L of Instant Ocean Salt in distilled water).” left out

[4] = 2.5 µM and 10 µM, zebrafish embryos
[5] = vs vehicle (0.05% DMSO), read-out: Anti-angiogenic phenotype
[6] = 2.5 μM, vs vehicle (0.05% DMSO), read-out: Anti-angiogenic phenotype

Structure (SMILES) | Mortality rates (zebrafish embryos [1]; 1 μM, zebrafish) | Mortality rates (zebrafish embryos [1]; [4]) | Mortality rates (zebrafish embryos [1]; 2.5 μM, zebrafish) | Mortality rates (zebrafish embryos [1]; 10 μM, zebrafish) | IC50 (HUVEC) | IC50 (HeLa) | IC50 (HepG2) | IC50 (K562) | IC50 (A549) | IC50 (HCT116) | Heart rates of zebrafish (zebrafish embryos [2]; 2.5 μM) | Heart rates of zebrafish (zebrafish embryos [2]; 10 μM) | inhibition at 0.5 µM (HUVECs) | IC50 (LO2) | inhibition in vivo at 1 µM ([3]; read-out: antiangiogenic rates) | inhibition in vivo at 1 µM [3, 5] | inhibition in vivo at 2.5 µM [3, 6] | inhibition in vivo at 10 µM [3, 5] | antiangiogenic rates [3] | antiangiogenic activities ([3]; 2.5 μM, not enhanced greatly at 10 μM)
CC(=O)Nc1ccc(OC(=O)/C(C)=C\CC23OC(C)(C)C4CC(C=C5C(=O)c6c(O)c7c(c(CC=C(C)C)c6OC542)OC(C)(CCC=C(C)C)C=C7)C3=O)cc1 (stereo not drawn) [Compound 4, 4-Acetamidephenyl gambogate] | 0% | less than 20% | 6.7 ± 5.77 % | 20 ± 0.00 % | 1.17 ± 0.12 µM | 1.34 ± 0.04 µM | 1.1 ± 0.06 µM | 0.41 ± 0.02 µM | 0.95 ± 0.09 µM | 0.48 ± 0.04 µM | 80 ± 5.31 beats/min | 54 ± 4.00 beats/min | 43.5% | 0.83 ± 0.03 µM | 25 to 50% | 25 to 50% | 50 to 75% | > 75% |  | 
CC(C)=CCCC1(C)C=Cc2c(O)c3c(c(CC=C(C)C)c2O1)OC12C(=CC4CC1C(C)(C)OC2(C/C=C(/C)C(=O)Oc1ccc(C=O)cc1)C4=O)C3=O (stereo not drawn) [Compound 20, 4-Formylphenyl gambogate] |  |  |  |  | 7.7 ± 0.32 µM | 24.3 ± 2.13 µM | 5.86 ± 0.4 µM | 4.52 ± 0.43 µM | 31.2 ± 2.29 µM | 7.9 ± 0.14 µM |  |  |  | 9.92 ± 0.52 µM |  |  |  | 25 to 50% | inactive | 
COc1ccc(OC(=O)/C(C)=C\CC23OC(C)(C)C4CC(C=C5C(=O)c6c(O)c7c(c(CC=C(C)C)c6OC542)OC(C)(CCC=C(C)C)C=C7)C3=O)cc1Br (stereo not drawn) [Compound 22, 2-Bromo-4-methoxyphenyl gambogate] |  |  |  |  | 51.3 ± 1.1 µM | > 80 µM | 63.2 ± 3.88 µM | 36.9 ± 0.56 µM | > 80 µM | 36.9 ± 0.64 µM |  |  |  | > 80 µM |  |  |  | 25 to 50% | inactive | 
CC(C)=CCCC1(C)C=Cc2c(O)c3c(c(CC=C(C)C)c2O1)OC12C(=CC4CC1C(C)(C)OC2(C/C=C(/C)C(=O)Oc1ccc(Cl)cc1C=O)C4=O)C3=O (stereo not drawn) [Compound 23, 4-Chloro-2-formylphenyl gambogate] |  |  |  |  | 32 ± 1.76 µM | 61.6 ± 5.86 µM | 19.9 ± 2.89 µM | 15.5 ± 1.35 µM | 73.5 ± 3.4 µM | 15.9 ± 1.46 µM |  |  |  | 31.7 ± 1.94 µM |  |  |  | 25 to 50% | inactive | 
CCCC(=O)Nc1ccc(OC(=O)/C(C)=C\CC23OC(C)(C)C4CC(C=C5C(=O)c6c(O)c7c(c(CC=C(C)C)c6OC542)OC(C)(CCC=C(C)C)C=C7)C3=O)cc1 (stereo not drawn) [Compound 26, 4-Butyramidophenyl gambogate] |  |  |  |  | 2.98 ± 0.1 µM | 4.46 ± 0.57 µM | 1.72 ± 0.12 µM | 0.77 ± 0.03 µM | 4 ± 0.8 µM | 1.73 ± 0.44 µM |  |  |  | 4.22 ± 0.5 µM | 25 to 50% | 25 to 50% | 25 to 50% | 25 to 50% |  | moderate
CC(C)=CCCC1(C)C=Cc2c(O)c3c(c(CC=C(C)C)c2O1)OC12C(=CC4CC1C(C)(C)OC2(C/C=C(/C)C(=O)Nc1nccs1)C4=O)C3=O (stereo not drawn) [Compound 32, Thiazol-2-gambogamide] | 0% | less than 20% | 6.7 ± 5.77 % | 16.7 ± 5.77 % | 1.09 ± 0.09 µM | 1.08 ± 0.1 µM | 0.81 ± 0.06 µM | 0.4 ± 0.02 µM | 0.74 ± 0.04 µM | 0.45 ± 0.01 µM | 60 ± 4.36 beats/min | 54 ± 3.68 beats/min | 39.1% | 1.7 ± 0.48 µM | 25 to 50% | 25 to 50% | 50 to 75% | > 75% |  | 
